Values joined by “and” are separate entries in the source; they are usually repeats but may differ in a detail not shown here. Equal values may be shown once. Toxic doses and inconclusive results are not listed. No stated cut-off is given here; in the data, active means T/C of 150% or more; inactive means T/C below 125%.
System: L1210 leukemia ip in BDF1 mice, survival T/C
Test: NCI In Vivo Anticancer Drug Screen. Data for tumor model L1210 Leukemia (intraperitoneal) in B6D2F1 (BDF1) mice
Settings: endpoint: mean survival time, higher = longer survival
Outline: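 Ratio derived from survival: compound-dosed mice over vehicle-dosed mice, all bearing a transplantable tumor.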

[1] = dose: 100.0 mg/kg/injection, schedule: Q04DX003 (ip), vehicle: Klucel (hydroxypropylcellulose) (HPC)
[2] = dose: 200.0 mg/kg/injection, schedule: Q04DX003 (ip), vehicle: Klucel (hydroxypropylcellulose) (HPC)
[3] = dose: 400.0 mg/kg/injection, schedule: Q04DX003 (ip), vehicle: Klucel (hydroxypropylcellulose) (HPC)
[4] = dose: 100.0 mg/kg/injection, schedule: Q01DX009 (ip), vehicle: saline with Tween-80
[5] = dose: 200.0 mg/kg/injection, schedule: Q01DX009 (ip), vehicle: saline with Tween-80
[6] = dose: 50.0 mg/kg/injection, schedule: Q01DX009 (ip), vehicle: saline with Tween-80
[7] = dose: 100.0 mg/kg/injection, schedule: Q01DX001 (ip), vehicle: carboxymethylcellulose (CMC)
[8] = dose: 200.0 mg/kg/injection, schedule: Q01DX001 (ip), vehicle: carboxymethylcellulose (CMC)
[9] = dose: 100.0 mg/kg/injection, schedule: Q04DX003 (ip), vehicle: saline with Tween-80
[10] = dose: 200.0 mg/kg/injection, schedule: Q04DX003 (ip), vehicle: saline with Tween-80
[11] = dose: 100.0 mg/kg/injection, schedule: Q01DX001 (ip), vehicle: Klucel (hydroxypropylcellulose) (HPC)
[12] = dose: 200.0 mg/kg/injection, schedule: Q01DX001 (ip), vehicle: Klucel (hydroxypropylcellulose) (HPC)

Measured: T/C

CCOC(=S)SCC#CCSC(=S)OCC
inactive: dose: 100.0 mg/kg/injection, schedule: Q04DX002 (sc), vehicle: olive oil, sesame oil, peanut oil 104 % of control | dose: 200.0 mg/kg/injection, schedule: Q04DX002 (sc), vehicle: olive oil, sesame oil, peanut oil 114 % of control | dose: 400.0 mg/kg/injection, schedule: Q04DX002 (sc), vehicle: olive oil, sesame oil, peanut oil 96 % of control

c1ccc(-c2ccc(-c3c(-c4ccccc4)ccc(-c4ccccc4)c3-c3ccccc3)cc2)cc1
inactive: dose: 100.0 mg/kg/injection, schedule: Q01DX001 (ip), vehicle: saline with Tween-80 104 % of control | dose: 200.0 mg/kg/injection, schedule: Q01DX001 (ip), vehicle: saline with Tween-80 104 % of control | dose: 400.0 mg/kg/injection, schedule: Q01DX001 (ip), vehicle: saline with Tween-80 112 % of control

Nc1ncnc2c1c(-c1ncn[nH]1)cn2C1OC(CO)C(O)C1O (stereo not given)
inactive: dose: 0.09 mg/kg/injection, schedule: Q01DX009 (ip), vehicle: saline 119 % of control | dose: 0.19 mg/kg/injection, schedule: Q01DX009 (ip), vehicle: saline 119 % of control | dose: 0.39 mg/kg/injection, schedule: Q01DX005 (ip), vehicle: saline 119 % of control

CCOC(=O)/C(O)=C/c1nc2ccccc2nc1C
inactive: [1] 105 % of control | [2] 96 % of control | [3] 99 % of control

CCCCCCCCS(=O)(O)=S.[Fe]
inactive: dose: 75.0 mg/kg/injection, schedule: Q01DX001 (ip), vehicle: saline 93 % of control | dose: 150.0 mg/kg/injection, schedule: Q01DX001 (ip), vehicle: saline 91 % of control | dose: 300.0 mg/kg/injection, schedule: Q01DX001 (ip), vehicle: saline 91 % of control

CCOC(=O)NC(CCN(C)C)(c1cccc2ccccc12)C(C)C (stereo not given)
inactive: dose: 50.0 mg/kg/injection, schedule: Q04DX002 (ip), vehicle: Klucel (hydroxypropylcellulose) (HPC) 100 % of control | dose: 100.0 mg/kg/injection, schedule: Q01DX009 (ip), vehicle: Klucel (hydroxypropylcellulose) (HPC) 101 % of control | dose: 100.0 mg/kg/injection, schedule: Q04DX002 (ip), vehicle: Klucel (hydroxypropylcellulose) (HPC) 100 % of control

COc1nn(O)cc(C)c1=N
inactive: dose: 25.0 mg/kg/injection, schedule: Q04DX002 (ip), vehicle: saline with Tween-80 92 % of control | dose: 100.0 mg/kg/injection, schedule: Q04DX002 (ip), vehicle: saline with Tween-80 96 % of control

CCOC1=NN(c2ccccc2)C(=O)C1
inactive: [4] 104 % of control | [5] 101 % of control | dose: 400.0 mg/kg/injection, schedule: Q01DX009 (ip), vehicle: saline with Tween-80 97 % of control

Cc1ccc([Si](C)(C)[Si](C)C)cc1
inactive: [1] 98 % of control | [2] 102 % of control | [3] 105 % of control

CCOC(=O)C(O)(CC)CCC(C)C (stereo not given)
inactive: [6] 101 % of control | [4] 101 % of control | [5] 111 % of control

O=C(Nc1ccc(Nc2ccccc2)cc1)Nc1ccccc1C(F)(F)F
inactive: dose: 50.0 mg/kg/injection, schedule: Q01DX001 (ip), vehicle: carboxymethylcellulose (CMC) 95 % of control | dose: 50.0 mg/kg/injection, schedule: Q04DX003 (ip), vehicle: carboxymethylcellulose (CMC) 100 % of control | [7] 105 % of control | dose: 100.0 mg/kg/injection, schedule: Q01DX009 (ip), vehicle: carboxymethylcellulose (CMC) 88 % of control | dose: 100.0 mg/kg/injection, schedule: Q04DX002 (ip), vehicle: carboxymethylcellulose (CMC) 102 % of control and 106 % of control | dose: 100.0 mg/kg/injection, schedule: Q04DX003 (ip), vehicle: carboxymethylcellulose (CMC) 93 % of control | [8] 92 % of control | dose: 200.0 mg/kg/injection, schedule: Q01DX009 (ip), vehicle: carboxymethylcellulose (CMC) 86 % of control and 92 % of control | dose: 200.0 mg/kg/injection, schedule: Q04DX002 (ip), vehicle: carboxymethylcellulose (CMC) 94 % of control and 97 % of control | dose: 400.0 mg/kg/injection, schedule: Q01DX009 (ip), vehicle: carboxymethylcellulose (CMC) 92 % of control | dose: 400.0 mg/kg/injection, schedule: Q04DX002 (ip), vehicle: carboxymethylcellulose (CMC) 94 % of control and 92 % of control

Nc1nc(N)c(-c2ccc(Cl)cc2)c(CCc2ccc(NC(=O)CBr)cc2)n1
inactive: dose: 50.0 mg/kg/injection, schedule: Q01DX001 (ip), vehicle: saline 116 % of control | dose: 100.0 mg/kg/injection, schedule: Q01DX001 (ip), vehicle: saline 110 % of control

C=C(CSCC(=O)O)c1ccccc1
inactive: dose: 100.0 mg/kg/injection, schedule: Q04DX002 (ip), vehicle: saline 105 % of control | dose: 200.0 mg/kg/injection, schedule: Q04DX002 (ip), vehicle: saline 97 % of control | dose: 400.0 mg/kg/injection, schedule: Q04DX002 (ip), vehicle: saline 97 % of control

CCCCCC(O)C(C)C (stereo not given)
inactive: dose: 37.5 mg/kg/injection, schedule: Q04DX003 (ip), vehicle: saline 96 % of control | dose: 75.0 mg/kg/injection, schedule: Q04DX003 (ip), vehicle: saline 108 % of control | dose: 150.0 mg/kg/injection, schedule: Q04DX003 (ip), vehicle: saline 94 % of control

C/C=C\C#N
inactive: dose: 100.0 mg/kg/injection, schedule: Q01DX009 (ip), vehicle: saline 106 % of control | dose: 100.0 mg/kg/injection, schedule: Q04DX003 (ip), vehicle: saline 103 % of control | dose: 200.0 mg/kg/injection, schedule: Q01DX009 (ip), vehicle: saline 108 % of control | dose: 200.0 mg/kg/injection, schedule: Q04DX003 (ip), vehicle: saline 113 % of control

Cc1cnc(-n2nc(-c3ccccc3)cc2-c2ccccc2)nc1-c1ccccc1O
inactive: dose: 12.5 mg/kg/injection, schedule: Q01DX009 (ip), vehicle: Klucel (hydroxypropylcellulose) (HPC) 87 % of control | dose: 25.0 mg/kg/injection, schedule: Q01DX009 (ip), vehicle: Klucel (hydroxypropylcellulose) (HPC) 91 % of control | dose: 50.0 mg/kg/injection, schedule: Q01DX009 (ip), vehicle: Klucel (hydroxypropylcellulose) (HPC) 97 % of control and 92 % of control

O=C1N(Cl)C(=O)C(c2ccc(C(F)(F)F)cc2)(c2ccc(C(F)(F)F)cc2)N1Cl
inactive: [6] 88 % of control | [4] 100 % of control | [9] 102 % of control | [10] 100 % of control

c1ccc(C2(C3(c4ccccc4)SCCCS3)CN2)cc1 (stereo not given)
inactive: [11] 101 % of control | [12] 97 % of control

CC(=O)Nc1nc(/C=C/C(=O)CCl)c(CCCCc2ccccc2)c(=O)[nH]1
inactive: dose: 50.0 mg/kg/injection, schedule: Q01DX001 (ip), vehicle: Klucel (hydroxypropylcellulose) (HPC) 93 % of control | [11] 102 % of control | [12] 96 % of control

NS(=O)(=O)c1cc([N+](=O)[O-])ccc1Cl
inactive: [9] 108 % of control | [10] 111 % of control | dose: 400.0 mg/kg/injection, schedule: Q04DX003 (ip), vehicle: saline with Tween-80 95 % of control

OC(CCl)Cc1ccccc1 (stereo not given)
inactive: dose: 25.0 mg/kg/injection, schedule: Q01DX009 (ip), vehicle: saline with Tween-80 93 % of control | [6] 90 % of control | [4] 92 % of control

O=C(N/N=C/c1ccc(Cl)c([N+](=O)[O-])c1)C(O)(c1ccccc1)c1ccccc1
inactive: [7] 103 % of control | [8] 95 % of control | dose: 400.0 mg/kg/injection, schedule: Q01DX001 (ip), vehicle: carboxymethylcellulose (CMC) 101 % of control

CCCCCC(Oc1ccc(Cl)cc1)C(=O)O (stereo not given)
inactive: [1] 104 % of control | [2] 98 % of control
